Our source for the CC50 and EC50 values is patent publication US8673929B2, “4,6-di- and 2,4,6-trisubstituted quinazoline derivatives and pharmaceutical compositions useful for treating viral infections” (priority 2006, dated 2014).

One data set has as its system Huh-7 HCV replicon cells. Briefly: CC50 assay in the anti-HCV replicon assay (CellTiter-Glo). In kind it is cell-based, human. The settings on record: 3 days incubation, CellTiter-Glo luminescence. Summed up:
(§1)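 Huh-7 cells harbouring an HCV replicon (6000/well) incubated 3 days at 37° C with 3-fold serially diluted compound (0.5% DMSO final where used). EC50 from luciferase luminescence of lysed cells; CC50 from CellTiter-Glo luminescence in parallel plates.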

Another data set has as its target HCV replicon. Briefly: Anti-HCV replicon assay, EC50 (luciferase readout). It counts as cell-based. The settings on record: Huh-7 HCV replicon cells, 3 days incubation, luciferase luminescence. Summed up: as §1
For orientation: Replicon systems follow genome replication, usually without infectious particles.

A short description of data set [1]: CC50 assay in the anti-HCV replicon assay (CellTiter-Glo). In kind it is cell-based, human. The settings on record: human, Huh-7 hepatoma cells harbouring an HCV replicon; Huh-7 HCV replicon cells, 3 days incubation, CellTiter-Glo luminescence. Summed up:
as §1

As a reminder, the CC50 is the concentration that lowers cell viability or growth by half. Read a low CC50 as greater toxicity to the cells. What is called EC50 is the concentration giving half of the maximal effect. Read a low EC50 as a more potent agent.

In turn, `CCOc1nc(N)nc2ccc(-c3ccc(C(=O)N4CCCCC4)cc3)cc12` [Example 148, [4-(2-amino-4-ethoxy-quinazolin-6-yl)-pheny]-piperidin-1-yl-methanone] gave a CC50 in the data set on Huh-7 HCV replicon cells greater than 20 µM. Moreover, on HCV replicon, the EC50 was in the range of 1 to 10 µM.
The compound `CN(C)CCCOc1nc(N)nc2ccc(-c3ccc(C(F)(F)F)cc3C(F)(F)F)cc12` [Example 226, 6-(2,4-bis-trifluoromethyl-phenyl)-4-(3-dimethyl-aminopropoxy)-quinazolin-2-ylamine] came in with a CC50 in the data set on Huh-7 HCV replicon cells greater than 20 µM. Also, the EC50 at HCV replicon lay within 1 to 10 µM.
For `CCOc1ncnc2ccc(-c3cn[nH]c3)cc12` [Example 247, 4-ethoxy-6-(1H-pyrazo-4-yl)-quinazoline] the same measures were greater than 20 µM and 0.3 to 1 µM.
Take `CONC(=O)c1ccc(-c2ccc3nc(N)nc(OCC4CC4)c3c2)cc1` [Example 136]: the CC50 with Huh-7 HCV replicon cells fell in the range of 10 to 20 µM. The compound also returned a concentration for a half-maximal effect (EC50) at HCV replicon of 0.3 to 1 µM.
Turning to `CCOc1nc(NCc2ccc(S(N)(=O)=O)cc2)nc2ccc(-c3ccc(C(=O)NC4CC4)cc3)cc12` [Example 256, N-Cyclopropyl-4-[4-ethoxy-2-(4-sulfamoyl-benzylamino)-auinazolin-6-yl]-benzamide], in the data set with Huh-7 HCV replicon cells, the half-maximal cytotoxic concentration (CC50) is less than 10 µM. Also, the EC50 on HCV replicon was less than 0.3 µM.
On to “(R)-4-[2-Amino-4-(tetrahydro-furan-3-yloxy)-quinazolin-6-yl]-N-[2-(1-methyl-pyrrolidin-2-yl)-ethyl]-benzamide [Example 221]”, for which the CC50 with Huh-7 HCV replicon cells lay in the range of 10 to 20 µM. The EC50 at HCV replicon fell in the range of 0.3 to 1 µM.
Turning to `CN(C)CCCOc1nc(N)nc2ccc(-c3ccc(F)c(Cl)c3)cc12` [Example 228, 6-(3-Chloro-4-fluoro-phenyl)-4-(3-dimethyl-aminopropoxy)-quinazolin-2-ylamine], in the data set on Huh-7 HCV replicon cells, the cytotoxic concentration (CC50) is greater than 20 µM. At HCV replicon, this compound yielded an EC50 of 1 to 10 µM.
`Nc1nc(OCCN2CCOCC2)c2cc(-c3ccc(Cl)c(C(F)(F)F)c3)ccc2n1` [Example 234, 6-(4-Chloro-3-trifluoromethyl-phenyl)-4-(2-morpholin-4-yl-ethoxy)-quinazolin-2-ylamine] returned a CC50 at 3 days in data set [1] of 10 to 20 µM. The same compound had an EC50 in the data set with HCV replicon (Hepatitis C virus, 72 h) of 1 to 10 µM.
For `CNC(=O)c1ccc(-c2ccc3nc(N)nc(OCCOC)c3c2)cc1` [Example 59, 4-(2-Amino-4-(2-methoxy-ethoxy)-quinazolin-6-yl)-N-methyl-benzamide] the same measures were greater than 20 µM and 1 to 10 µM.
For `CC(C)Oc1nc(N)nc2ccc(-c3cccc(O)c3)cc12` [Example 184, 3-(2-Amino-4-isopropoxy-quinazolin-6-yl)-phenol] the same measures were less than 10 µM and 0.3 to 1 µM.
`CC(C)Oc1nc(N)nc2ccc(-c3ccc(C(=O)NC4CC4)c(Cl)c3)cc12` [Example 183, 4-(2-Amino-4-isopropoxy-quinazolin-6-yl)-2-chloro-N-cyclopropyl-benzamide]: in data set [1], the CC50 at 3 days is greater than 20 µM. Moreover, in the data set with HCV replicon (Hepatitis C virus, 72 h), the EC50 is 0.3 to 1 µM.
For the compound `Nc1nc(OCC2CCC2)c2cc(-c3ccc(F)c(F)c3F)ccc2n1` [Example 121, 4-Cyclobutylmethoxy-6-(2,3,4-trifluoro-phenyl)-quinazolin-2-ylamine], in data set [1], the CC50 at 3 days was greater than 20 µM. In the data set with HCV replicon (Hepatitis C virus, 72 h), this compound gave an EC50 of 1 to 10 µM.
